{"source": "patent US20250346550A1", "about": "“METHODS OF MODULATING ENDONUCLEASE G USING RESVERATROL AND ITS DERIVATIVES” (THE REGENTS OF THE UNIVERSITY OF COLORADO A BODY CORPORATE, priority 2022, published 2025)", "format_in_all_cases": "in vivo, C. elegans", "key": {"[1]": {"test_system": "α-synuclein-induced dopaminergic neuronal death in baIn11 animals", "assay": "α-synuclein-based Parkinson's Disease model, DA neuronal death", "conditions": "100 μM, adult day 2 baIn11 animals vs 0.25% ethanol", "from_the_text": "FIG. 8. […] In each experiment, 300 animals were scored to determine the percentage of animals losing at least one dopaminergic neuron in the head. Data are mean±s.e.m. *P<0.05; ***P<0.001, two-sided, unpaired t-test.\nFIG. 13. […] In each experiment, 300 animals were scored to determine the percentage of animals losing at least one of the six dopaminergic neurons in the head. Data are mean±s.e.m. ****P<0.001, two-sided, unpaired t-test.\nIn addition to PME and apoptosis, EndoG was previously shown to play an important role in mediating dopaminergic (DA) neuronal death induced by expression of human α-synuclein, which is widely considered to be a major proponent of Parkinson's disease. However, the mechanism by which EndoG mediates α-synuclein-induced neurodegeneration is unclear. In a C. elegans α-synuclein-based Parkinson's Disease model, co-expression of GFP and human α-synuclein in C. elegans dopaminergic neurons under the control of the promoter of the dat-1 gene, which encodes a dopamine transporter, from an integrated transgene baIn11 (Pdat-1::gfp/Pdat-1::α-synuclein) caused DA neuronal death in 30% of adult baIn11 animals (FIG. 8a). The cps-6(tm3222) mutation blocked DA neuronal death in adult baIn11 animals (FIG. 8a), confirming that CPS-6 is important for α-synuclein-induced DA neuronal death."}, "[2]": {"assay": "toxicity observed in animal assays", "conditions": "neuronal death and tumor assays, 100 μM", "from_the_text": "As described above, Applicant's successfully synthesized a new compound, stabilized cis-resveratrol."}, "[3]": {"test_system": "germline tumor in daf-16(mu86); cki-2(ok2105); glp-1(ar202) mutant (ET507)", "assay": "germline tumor model (ET507)", "conditions": "100 μM, ET507 at 20° C., vs 0.25% ethanol (FIG. 14)", "method": "FIG. 9. Cis-resveratrol inhibits and trans-resveratrol promotes germline tumor formation. Tumor size and tumor occurring frequency of the daf-16(mu86); cki-2(0k2105); glp-1 (ar202) mutant grown at 20° C. and treated with 1% ethanol (Mock), 200 μM cis-resveratrol (Cis), and 200 μM trans-resveratrol (Trans), respectively, are shown. Tumor assays were performed in triplicate with 100 animals per replicate. a, A five-stage classification was created to measure the tumor size in adult day 5 animals under the Normaski optic. Score 1 denotes the normal gonads seen in wild-type animals. Score 5 denotes enlarged gonads full of mitotic germ cells and without any egg or oocyte. Score 2-4 denote partially enlarged gonads. b, Tumor frequency indicates the percentage of animals with enlarged gonads (score 5). Data from three independent biological replicates are shown as mean±SEM. *P<0.05; **P<0.01; ***P<0.001, two-sided, unpaired t-test.\nFIG. 14. stabilized cis-resveratrol inhibits germline tumor formation as well as cis-resveratrol. Tumor occurring frequency of the daf-16 (mu86); cki-2 (0k2105); glp-1 (ar202) mutant (ET507) grown at 20° C. and treated with 0.25% ethanol (Mock), 100 μM cis-resveratrol, and 100 μM Stabilized cis-resveratrol, respectively, are shown. Tumor assays were performed in triplicate with 100 animals per replicate. Data are mean±s.e.m. ****P<0.001, two-sided, unpaired t-test\nThe present inventors tested whether resveratrol isomers affect tumorigenesis in a C. elegans germline tumor model (ET507), in which three cell growth genes, daf-16, cki-2, and glp-1, are mutated, leading to uncontrolled germ cell proliferation and germline tumor."}}, "data": [{"smiles": "O=C1CCC(c2ccc(O)cc2)=C1c1cc(O)cc(O)c1", "note": "[stabilized cis-resveratrol]", "values": [{"measurement": "effect on α-synuclein-induced DA neuronal death", "setting": "[1]", "value": "comparable activity as cis-resveratrol in strongly suppressing"}, {"measurement": "toxicity in animal assays", "setting": "[2]", "value": "No obvious toxicity was observed"}, {"measurement": "germline tumor formation", "setting": "[3]", "value": "comparable activity as cis-resveratrol in strongly suppressing"}]}]}
